From patent US12077503B2, “Substituted cyclic amides and their use as herbicides” (FMC CORPORATION, priority 2015, dated 2024)

What was measured:
Type in all cases: in vivo
Kochia (Kochia scoparia) [1] = assay: Test A preemergence; conditions: Bassia scoparia, pre-emergence, 240 h
Method in brief: (§1)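 Treatment is preemergence as a directed soil spray after planting, or postemergence at the one- to two-leaf stage, with test chemical in a non-phytotoxic solvent mixture plus surfactant. Plants stay in the greenhouse about 10 d before visual injury scoring on a 0 to 100 scale versus untreated controls.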

[2] = system: barnyardgrass (Echinochloa crus-galli); assay: Test A preemergence; conditions: Echinochloa crus-galli, pre-emergence, 240 h
Method in brief: as §1

[3] = system: giant foxtail (Setaria faberii); assay: Test A preemergence; conditions: Setaria faberi, pre-emergence, 240 h
Method in brief: as §1

[4] = system: pigweed (Amaranthus retroflexus); assay: Test A preemergence; conditions: Amaranthus retroflexus, pre-emergence, 240 h
[5] = system: ragweed (common ragweed, Ambrosia elatior); assay: Test A preemergence; conditions: Ambrosia artemisiifolia, pre-emergence, 240 h
Method in brief: as §1

[6] = system: ryegrass, Italian (Italian ryegrass, Lolium multiflorum); assay: Test A preemergence; conditions: Lolium multiflorum, pre-emergence, 240 h
Method in brief: as §1

[7] = system: Galium (catchweed bedstraw, Galium aparine); assay: Test A postemergence; conditions: Galium, post-emergence, 240 h, 125 g ai/ha, Postemergence; visual injury after approximately 10 d; 0 to 100 scale where 0 is no effect and 100 is complete control; read-out: Plant response rating, Galium
Method in brief: as §1

Kochia (Kochia scoparia) [8] = assay: Test A postemergence; conditions: Bassia scoparia, post-emergence, 240 h, 125 g ai/ha, Postemergence; visual injury after approximately 10 d; 0 to 100 scale where 0 is no effect and 100 is complete control; read-out: Plant response rating, Kochia
Method in brief: as §1

[9] = system: barnyardgrass (Echinochloa crus-galli); assay: Test A postemergence; conditions: Echinochloa crus-galli, post-emergence, 240 h, 125 g ai/ha, Postemergence; visual injury after approximately 10 d; 0 to 100 scale where 0 is no effect and 100 is complete control; read-out: Plant response rating, Barnyardgrass
Method in brief: as §1

[10] = system: blackgrass (Alopecurus myosuroides); assay: Test A postemergence; conditions: Alopecurus myosuroides, post-emergence, 240 h, 125 g ai/ha, Postemergence; visual injury after approximately 10 d; 0 to 100 scale where 0 is no effect and 100 is complete control; read-out: Plant response rating, Blackgrass
Method in brief: as §1

corn (Zea mays) = assay: Test A postemergence; conditions: Zea mays, post-emergence, 240 h, 125 g ai/ha, Postemergence; visual injury after approximately 10 d; 0 to 100 scale where 0 is no effect and 100 is complete control
Method in brief: as §1

[11] = system: giant foxtail (Setaria faberii); assay: Test A postemergence; conditions: Setaria faberi, post-emergence, 240 h, 125 g ai/ha, Postemergence; visual injury after approximately 10 d; 0 to 100 scale where 0 is no effect and 100 is complete control; read-out: Plant response rating, Foxtail, Giant
Method in brief: as §1

[12] = system: pigweed (Amaranthus retroflexus); assay: Test A postemergence; conditions: Amaranthus retroflexus, post-emergence, 240 h, 125 g ai/ha, Postemergence; visual injury after approximately 10 d; 0 to 100 scale where 0 is no effect and 100 is complete control; read-out: Plant response rating, Pigweed
Method in brief: as §1

[13] = system: ragweed (common ragweed, Ambrosia elatior); assay: Test A postemergence; conditions: Ambrosia artemisiifolia, post-emergence, 240 h, 125 g ai/ha, Postemergence; visual injury after approximately 10 d; 0 to 100 scale where 0 is no effect and 100 is complete control; read-out: Plant response rating, Ragweed
Method in brief: as §1

[14] = system: ryegrass, Italian (Italian ryegrass, Lolium multiflorum); assay: Test A postemergence; conditions: Lolium multiflorum, post-emergence, 240 h, 125 g ai/ha, Postemergence; visual injury after approximately 10 d; 0 to 100 scale where 0 is no effect and 100 is complete control; read-out: Plant response rating, Ryegrass, Italian
Method in brief: as §1

[15] = system: wheat (Triticum aestivum); assay: Test A postemergence; conditions: Triticum aestivum, post-emergence, 240 h, 125 g ai/ha, Postemergence; visual injury after approximately 10 d; 0 to 100 scale where 0 is no effect and 100 is complete control; read-out: Plant response rating, Wheat
Method in brief: as §1

[16] = system: barnyardgrass (Echinochloa crus-galli); assay: Test B flooded paddy test; conditions: Echinochloa crus-galli, Flood, 250 g ai/ha; scale of 0 to 100 where 0 is no effect and 100 is complete control; read-out: Barnyardgrass plant response rating
Method in brief: (§2)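 Percent control, visually estimated after 13–15 d in the greenhouse on a 0–100 basis, compares treated pots with untreated ones; compound was put into paddy water 3 cm above the soil when plants had two leaves.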

[17] = system: ducksalad (Heteranthera limosa); assay: Test B flooded paddy test; conditions: Heteranthera limosa, Flood, 250 g ai/ha; scale of 0 to 100 where 0 is no effect and 100 is complete control; read-out: Ducksalad plant response rating
Method in brief: as §2

rice (Oryra sativa) = assay: Test B flooded paddy test; conditions: Oryza sativa, Flood, 250 g ai/ha; scale of 0 to 100 where 0 is no effect and 100 is complete control; read-out: Rice plant response rating
Method in brief: as §2

[18] = system: sedge, umbrella (small-flower umbrella sedge, Cyperus difformis); assay: Test B flooded paddy test; conditions: Cyperus difformis, Flood, 250 g ai/ha; scale of 0 to 100 where 0 is no effect and 100 is complete control; read-out: Sedge, Umbrella plant response rating
Method in brief: as §2

Q: What does the source list for `CCOc1cccc([C@H]2CNC(=O)[C@@H]2C(=O)Nc2cccc(F)c2F)c1` [Compound 950]?
A: pest or weed control at 125 g/ha (Kochia (Kochia scoparia) [1]; 125 g ai/ha, Preemergence, visual injury rating after approximately 10 d, read-out: Kochia plant response rating (0 to 100 scale, 0 is no effect, 100 is complete control)): 50%; pest or weed control at 500 g/ha (Kochia (Kochia scoparia) [1]; 500 g ai/ha, preemergence, visual injury rating about 10 d after treatment, 0 to 100 scale (0 no effect, 100 complete control), read-out: Kochia plant response rating): 60%; pest or weed control at 125 g/ha ([2]; 125 g ai/ha, Preemergence, visual injury rating after approximately 10 d, read-out: Barnyardgrass plant response rating (0 to 100 scale, 0 is no effect, 100 is complete control)): 100%; pest or weed control at 500 g/ha ([2]; 500 g ai/ha, preemergence, visual injury rating about 10 d after treatment, 0 to 100 scale (0 no effect, 100 complete control), read-out: Barnyardgrass plant response rating): 100%; pest or weed control at 125 g/ha ([3]; 125 g ai/ha, Preemergence, visual injury rating after approximately 10 d, read-out: Foxtail, Giant plant response rating (0 to 100 scale, 0 is no effect, 100 is complete control)): 60%; pest or weed control at 500 g/ha ([3]; 500 g ai/ha, preemergence, visual injury rating about 10 d after treatment, 0 to 100 scale (0 no effect, 100 complete control), read-out: Foxtail, Giant plant response rating): 90%; pest or weed control at 125 g/ha ([4]; 125 g ai/ha, Preemergence, visual injury rating after approximately 10 d, read-out: Pigweed plant response rating (0 to 100 scale, 0 is no effect, 100 is complete control)): 0%; pest or weed control at 500 g/ha ([4]; 500 g ai/ha, preemergence, visual injury rating about 10 d after treatment, 0 to 100 scale (0 no effect, 100 complete control), read-out: Pigweed plant response rating): 0%; pest or weed control at 125 g/ha ([5]; 125 g ai/ha, Preemergence, visual injury rating after approximately 10 d, read-out: Ragweed plant response rating (0 to 100 scale, 0 is no effect, 100 is complete control)): 0%; pest or weed control at 500 g/ha ([5]; 500 g ai/ha, preemergence, visual injury rating about 10 d after treatment, 0 to 100 scale (0 no effect, 100 complete control), read-out: Ragweed plant response rating): 20%; pest or weed control at 125 g/ha ([6]; 125 g ai/ha, Preemergence, visual injury rating after approximately 10 d, read-out: Ryegrass, Italian plant response rating (0 to 100 scale, 0 is no effect, 100 is complete control)): 20%; pest or weed control at 500 g/ha ([6]; 500 g ai/ha, preemergence, visual injury rating about 10 d after treatment, 0 to 100 scale (0 no effect, 100 complete control), read-out: Ryegrass, Italian plant response rating): 70%; pest or weed control at 125 g/ha [7]: 20%; pest or weed control at 125 g/ha (Kochia (Kochia scoparia) [8]): 0%; pest or weed control at 125 g/ha [9]: 90%; pest or weed control at 125 g/ha [10]: 0%; Corn plant response rating (crop injury, 0 = no effect, 100 = complete kill) at 125 g/ha (corn (Zea mays)): 0%; pest or weed control at 125 g/ha [11]: 0%; pest or weed control at 125 g/ha [12]: 0%; pest or weed control at 125 g/ha [13]: 0%; pest or weed control at 125 g/ha [14]: 20%; plant injury at 125 g/ha [15]: 0%; pest or weed control at 250 g/ha [16]: 65%; pest or weed control at 250 g/ha [17]: 95%; pest or weed control at 250 g/ha (rice (Oryra sativa)): 0%; pest or weed control at 250 g/ha [18]: 0%
